The record followed here is ChEMBL document CHEMBL1165924 (Bioorg Med Chem, 2010).

Experiment [1] deals with T1, Neuraminidase (Influenza A virus, UniProt B4URF0). Briefly: Inhibition of Influenza A virus A/WSN/1933(H1N1) neuraminidase.
Experiment [2] can be described thus: Antiviral activity against Influenza A virus (A/WSN/1933(H1N1)) infected in MDCK cells assessed as inhibition of virus-induced cytopathicity. The class given is functional, organism-based.
Experiment [3] deals with Influenza A virus. In words: Antiviral activity against Influenza A virus (A/Singapore/1/1957 (H2N2)) infected in MDCK cells assessed as inhibition of virus-induced plaque formation. The format is functional, organism-based.
The target of experiment [4] is T1, Neuraminidase.
Experiment [5] addresses T1, Neuraminidase. In words: Inhibition of Influenza A virus A/Vienna/83/58(H2N2) neuraminidase.

T1 sequence (B4URF0 whole entry): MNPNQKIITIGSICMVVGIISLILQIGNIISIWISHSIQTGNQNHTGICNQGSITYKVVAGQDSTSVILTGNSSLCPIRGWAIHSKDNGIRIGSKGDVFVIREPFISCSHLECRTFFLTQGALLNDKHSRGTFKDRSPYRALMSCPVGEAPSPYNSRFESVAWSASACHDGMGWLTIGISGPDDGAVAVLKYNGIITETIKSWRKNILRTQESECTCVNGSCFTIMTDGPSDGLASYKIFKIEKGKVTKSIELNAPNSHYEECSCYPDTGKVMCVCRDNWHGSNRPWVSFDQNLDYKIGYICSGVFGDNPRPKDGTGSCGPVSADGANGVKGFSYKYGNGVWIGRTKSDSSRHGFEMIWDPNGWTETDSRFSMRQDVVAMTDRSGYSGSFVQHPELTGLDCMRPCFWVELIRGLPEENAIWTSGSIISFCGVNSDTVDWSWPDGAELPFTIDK

Take `CC(=O)N[C@H]1[C@H]([C@H](O)[C@H](O)CO)OC(C(=O)O)=C[C@@H]1N(CCCC(=O)O)C(=N)N`: in experiment [1], the IC50 is 7.12 µM. Further, in experiment [2], the EC50 stood at 52 µM. Consider `CC(=O)N[C@H]1[C@H]([C@H](O)[C@H](O)CO)OC(C(=O)O)=C[C@@H]1NCCCCC(=O)O`, for which the IC50 in experiment [1] worked out at 80 µM. In turn, `CC(=O)N[C@H]1[C@H]([C@H](O)[C@H](O)CO)OC(C(=O)O)=C[C@@H]1N(CCCC(=O)N1CCN(C)CC1)C(=N)N` gave an IC50 in experiment [1] of 6.5 µM. The EC50 in experiment [2] turned out to be 10.7 µM. Compound `CC(=O)N[C@H]1[C@H]([C@H](O)[C@H](O)CO)OC(C(=O)O)=C[C@@H]1NCCCC(=O)O` showed an IC50 in experiment [1] of 70 µM. This counts as double-digit micromolar. For `CC(=O)N[C@H]1[C@H]([C@H](O)[C@H](O)CO)OC(C(=O)O)=C[C@@H]1NC(=N)NCCCCN`, in experiment [1], the IC50 is more than 200 µM. `CC(=O)N[C@H]1[C@H]([C@H](O)[C@H](O)CO)OC(C(=O)O)=C[C@@H]1N`: the EC50 in experiment [3] was found to be 1.5 µM. Further, affinity in experiment [4] was put at a Ki of 0.04 µM.

In experiment [1], `CC(=O)N[C@H]1[C@H]([C@H](O)[C@H](O)CO)OC(C(=O)O)=C[C@@H]1N(CCCC(=O)N1CCOCC1)C(=N)N` showed an IC50 of 33.3 µM. In addition, the EC50 in experiment [2] stood at 37.6 µM.

With `CC(=O)N[C@H]1[C@H]([C@H](O)[C@H](O)CO)OC(C(=O)O)=C[C@@H]1N=C(N)NCCCN`, in experiment [1], the IC50 was more than 200 µM. In turn, `CC(=O)N[C@H]1[C@H]([C@H](O)[C@H](O)CO)OC(C(=O)O)=C[C@@H]1O` [NEU5AC2EN] registered an IC50 in experiment [5] of 190 µM. On to `CC(=O)N[C@H]1[C@H]([C@H](O)[C@H](O)CO)OC(C(=O)O)=C[C@@H]1N(CCCN)C(=N)N`, for which the IC50 in experiment [1] was more than 200 µM. Take `CC(=O)N[C@H]1[C@H]([C@H](O)[C@H](O)CO)OC(C(=O)O)=C[C@@H]1N(CCCCN)C(=N)N`: in experiment [1], the IC50 is more than 200 µM. `CC(=O)N[C@H]1[C@H]([C@H](O)[C@H](O)CO)OC(C(=O)O)=C[C@@H]1NCCCN`: in experiment [1], the IC50 was more than 200 µM. Turning to `CC(=O)N[C@H]1[C@H]([C@H](O)[C@H](O)CO)OC(C(=O)O)=C[C@@H]1NCCCCN`, in experiment [1], the IC50 was more than 200 µM. Compound `CC(=O)N[C@H]1[C@H]([C@H](O)[C@H](O)CO)OC(C(=O)O)=C[C@@H]1NC1=NCCN1` yielded an IC50 in experiment [1] of more than 200 µM. As for `CC(=O)N[C@H]1[C@H]([C@H](O)[C@H](O)CO)OC(C(=O)O)=C[C@@H]1NC(=N)N` [ZANAMIVIR], the EC50 in experiment [2] worked out at 0.013 µM. As for `CC(=O)N[C@H]1[C@H]([C@H](O)[C@H](O)CO)OC(C(=O)O)=C[C@@H]1N(CCCC(=O)N1CCCCC1)C(=N)N`, the IC50 in experiment [1] turned out to be 23.1 µM. In experiment [2], the EC50 turned out to be 45 µM. In turn, `CC(=O)N[C@H]1[C@H]([C@H](O)[C@H](O)CO)OC(C(=O)O)=C[C@@H]1N(CCCC(=O)N1CCNCC1)C(=N)N` returned an IC50 in experiment [1] of 2.15 µM. Moreover, in experiment [2], the EC50 amounted to 0.77 µM.

The IC50 is the concentration that inhibits the measured activity by half. High values mean weaker potency, low ones greater potency. A word on the EC50: it is the concentration that produces a half-maximal response. What is called Ki is the equilibrium dissociation constant of an inhibitor or competing ligand from its target. Read a low Ki as higher affinity.
